Source: patent publication US9108921B2, “Therapeutic compounds and compositions” (AGIOS PHARMACEUTICALS, INC, priority 2014, dated 2015)

Key:
PKR R510Q = PKR R510Q (Homo sapiens, UniProt P30613, R510Q); assay: PKR Mutant Assay, AC50 against PKR R510Q; assay type: biochemical; conditions: mutant PKR R510Q enzyme
Method in brief: (§1)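 LDH-coupled NADH depletion read as A340 change at room temperature after ADP (0.22-1.65 mM) start. Compounds, tested from 100 μM final in 3-fold steps over 11 points with 1% DMSO, sat 60 min with enzyme (80-400 ng/well), PEP 0.1-0.5 mM and NADH 180 uM in Tris pH 7.5/KCl/MgCl2/DTT/BSA buffer.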

PKR R532W = PKR R532W (Homo sapiens, UniProt P30613, R532W); assay: PKR Mutant Assay, AC50 against PKR R532W; assay type: biochemical; conditions: mutant PKR R532W enzyme
Method in brief: as §1

PKR WT [1] = biological target: T1, PKR WT (Homo sapiens, UniProt P30613); assay: PKR WT enzymatic AC50 assay; assay type: biochemical; conditions: wild type PKR
Method in brief: as §1

PKR WT [2] = biological target: T1, PKR WT; assay: PKR WT cell based AC50 assay; conditions: wild type PKR

Sequence of PKR R532W (P30613 whole entry R532W): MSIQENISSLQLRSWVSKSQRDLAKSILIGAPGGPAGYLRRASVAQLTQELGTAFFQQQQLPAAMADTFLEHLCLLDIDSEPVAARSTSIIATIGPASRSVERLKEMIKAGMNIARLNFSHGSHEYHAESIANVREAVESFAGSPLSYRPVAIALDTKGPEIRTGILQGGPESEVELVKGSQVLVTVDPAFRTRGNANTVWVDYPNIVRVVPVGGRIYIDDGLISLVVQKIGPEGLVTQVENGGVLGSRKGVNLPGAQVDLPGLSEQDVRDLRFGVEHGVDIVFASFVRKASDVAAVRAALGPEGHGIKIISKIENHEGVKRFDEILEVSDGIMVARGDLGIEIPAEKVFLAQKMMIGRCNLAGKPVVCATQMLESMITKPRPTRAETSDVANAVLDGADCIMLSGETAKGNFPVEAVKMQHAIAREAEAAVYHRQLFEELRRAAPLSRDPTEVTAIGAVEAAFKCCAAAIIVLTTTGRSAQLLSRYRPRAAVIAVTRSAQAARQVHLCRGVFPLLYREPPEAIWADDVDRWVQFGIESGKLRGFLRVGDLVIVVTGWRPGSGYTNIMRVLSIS
Sequence of PKR R510Q (P30613 whole entry R510Q): as the sequence (P30613 whole entry R532W) above, with R510Q, W532R counted along it
T1 sequence (P30613 whole entry): as the sequence (P30613 whole entry R532W) above, with W532R counted along it

AC50 (PKR R510Q) [µM] | AC50 (PKR R532W) [µM] | AC50 (PKR WT [1]) [µM] | AC50 (PKR WT [2]) [µM] | SMILES
< 0.1 | < 0.1 | < 0.1 | < 0.1 | O=C(c1ccc(NS(=O)(=O)c2cccc3c(O)ncnc23)cc1)N1CCC(O)(CCCC(F)(F)F)CC1 [Compound 427]
0.101 to 1 | < 0.1 | < 0.1 | 0.101 to 1 | O=C(c1ccc(NS(=O)(=O)c2cccc3cccnc23)cc1)N1CCC(O)(Cc2cccnc2)CC1 [Compound 185, N-(4-(4-hydroxy-4-(pyridin-3-ylmethyl)piperidine-1-carbonyl)phenyl)quinoline-8-sulfonamide]
< 0.1 | < 0.1 | < 0.1 | < 0.1 | Cc1cc(C(=O)N2CCC(O)(Cc3ccccc3)CC2)ccc1NS(=O)(=O)c1cccc2cccnc12 [Compound 101, N-(4-(4-benzyl-4-hydroxypiperidine-1-carbonyl)-2-methylphenyl)quinoline-8-sulfonamide]
< 0.1 | < 0.1 | < 0.1 | < 0.1 | O=C(c1ccc(NS(=O)(=O)c2cccc3cccnc23)cc1)N1CCC(O)(Cc2ccccc2F)CC1 [Compound 110, N-(4-(4-(2-fluorobenzyl)-4-hydroxypiperidine-1-carbonyl)phenyl)quinoline-8-sulfonamide]
0.101 to 1 | < 0.1 | < 0.1 | 0.101 to 1 | O=C(c1ccc(NS(=O)(=O)c2cccc3cccnc23)cc1)N1CCC(O)(Cc2ccccn2)CC1 [Compound 189, N-(4-(4-hydroxy-4-(pyridin-2-ylmethyl)piperidine-1-carbonyl)phenyl)quinoline-8-sulfonamide]
0.101 to 1 | < 0.1 | < 0.1 | < 0.1 | Cc1cccnc1C1(O)CCN(C(=O)c2ccc(NS(=O)(=O)c3cccc4cccnc34)cc2)CC1 [Compound 153, N-(4-(4-hydroxy-4-(3-methylpyridin-2-yl)piperidine-1-carbonyl)phenyl)quinoline-8-sulfonamide]
0.101 to 1 | < 0.1 | < 0.1 | < 0.1 | O=C(c1ccc(NS(=O)(=O)c2cccc3cccnc23)cc1)N1CCC(O)(c2cnsc2)CC1 [Compound 180]
0.101 to 1 | < 0.1 | < 0.1 | 0.101 to 1 | O=C(c1ccc(NS(=O)(=O)c2cccc3cccnc23)cc1)N1CCC(O)(c2ncccc2F)CC1 [Compound 148, N-(4-(4-(3-fluoropyridin-2-yl)-4-hydroxypiperidine-1-carbonyl)phenyl)quinoline-8-sulfonamide]
0.101 to 1 | < 0.1 | < 0.1 | < 0.1 | CC(C)C1(O)CCN(C(=O)c2ccc(NS(=O)(=O)c3cccc4cccnc34)cc2)CC1 [Compound 214, N-(4-(4-hydroxy-4-isopropylpiperidine-1-carbonyl)phenyl)quinoline-8-sulfonamide]
< 0.1 | < 0.1 | < 0.1 | < 0.1 | CC(C)CC1(O)CCN(C(=O)c2ccc(NS(=O)(=O)c3cccc4ccc(N)nc34)cc2)CC1 [Compound 402, 2-amino-N-(4-(4-hydroxy-4-isobutylpiperidine-1-carbonyl)phenyl)quinoline-8-sulfonamide]
< 0.1 | < 0.1 | < 0.1 | < 0.1 | O=C(c1ccc(NS(=O)(=O)c2cccc3scnc23)cc1)N1CCC(O)(CCCC(F)F)CC1 [Compound 389, N-(4-(4-(4,4-difluorobutyl)-4-hydroxypiperidine-1-carbonyl)phenyl)benzo[d]thiazole-4-sulfonamide]
< 0.1 | < 0.1 | < 0.1 | < 0.1 | CC(C)CC1(O)CCN(C(=O)c2ccc(NS(=O)(=O)c3cccc4sc(N)nc34)cc2)CC1 [Compound 406, 2-amino-N-(4-(4-hydroxy-4-isobutylpiperidine-1-carbonyl)phenyl)benzo[d]thiazole-4-sulfonamide]
< 0.1 | < 0.1 | < 0.1 | < 0.1 | Cc1nc(F)ccc1C1(O)CCN(C(=O)c2ccc(NS(=O)(=O)c3cccc4cccnc34)cc2)CC1 [Compound 129, N-(4-(4-(6-fluoro-2-methylpyridin-3-yl)-4-hydroxypiperidine-1-carbonyl)phenyl)quinoline-8-sulfonamide]
< 0.1 | < 0.1 | < 0.1 | < 0.1 | CC(C)CC1(O)CCN(C(=O)c2ccc(NS(=O)(=O)c3cccc4nc(N)cnc34)cc2)CC1 [Compound 439]
0.101 to 1 | < 0.1 | < 0.1 | < 0.1 | O=C(c1ccc(NS(=O)(=O)c2cccc3cccnc23)cc1)N1CCC(O)(Cc2cccc(F)c2F)CC1 [Compound 169, N-(4-(4-(2,3-difluorobenzyl)-4-hydroxypiperidine-1-carbonyl)phenyl)quinoline-8-sulfonamide]
0.101 to 1 | < 0.1 | < 0.1 | < 0.1 | O=C(c1ccc(NS(=O)(=O)c2cccc3nccnc23)cc1)N1CCC(O)(CCC(F)=C(F)F)CC1 [Compound 398, N-(4-(4-hydroxy-4-(3,4,4-trifluorobut-3-enyl)piperidine-1-carbonyl)phenyl)quinoxaline-5-sulfonamide]
< 0.1 | < 0.1 | < 0.1 | 0.101 to 1 | COc1cc(NS(=O)(=O)c2cccc3cccnc23)ccc1C(=O)N1CCC(O)(Cc2ccccc2)CC1 [Compound 112, N-(4-(4-benzyl-4-hydroxypiperidine-1-carbonyl)-3-methoxyphenyl)quinoline-8-sulfonamide]
< 0.1 | < 0.1 | < 0.1 | < 0.1 | O=C(c1ccc(NS(=O)(=O)c2cccc3cccnc23)c(F)c1)N1CCC(O)(c2ccccc2Cl)CC1 [Compound 143, N-(4-(4-(2-chlorophenyl)-4-hydroxypiperidine-1-carbonyl)-2-fluorophenyl)quinoline-8-sulfonamide]
0.101 to 1 | < 0.1 | 0.101 to 1 | 0.101 to 1 | CC(F)(F)CCC1(O)CCN(C(=O)c2ccc(NS(=O)(=O)c3cccc4nccnc34)cc2OC(F)F)CC1 [Compound 436]
< 0.1 | < 0.1 | < 0.1 | < 0.1 | CC(C)(C)CC1(O)CCN(C(=O)c2ccc(NS(=O)(=O)c3cccc4nccnc34)cc2)CC1 [Compound 130, N-(4-(4-hydroxy-4-neopentylpiperidine-1-carbonyl)phenyl)quinoxaline-5-sulfonamide]
0.101 to 1 | < 0.1 | < 0.1 | < 0.1 | O=C(c1ccc(NS(=O)(=O)c2cccc3cccnc23)cc1)N1CCC(O)(Cc2cccc(F)n2)CC1 [Compound 146, N-(4-(4-((6-fluoropyridin-2-yl)methyl)-4-hydroxypiperidine-1-carbonyl)phenyl)quinoline-8-sulfonamide]
0.101 to 1 | < 0.1 | < 0.1 | 0.101 to 1 | O=C(c1ccc(NS(=O)(=O)c2cccc3scnc23)cc1)N1CCC(O)(CC2CC2(F)F)CC1 (stereo not shown) [Compound 432]
